# In patent publication US10300000B2, “Inhibition of melanogenesis by chemically modified curcumins” (The Research Foundation for The State University of New York, priority 2016, dated 2019):
# What was measured:
# [1] = tested on: intracellular ROS in B16F10 cells; experiment: Intracellular ROS assay (H2DCFDA) in B16F10 cells; type: cell-based, mouse; details: B16F10, 25 μM, 48 hours
# Description: Intracellular ROS generation was quantified using 2′,7′-dichlorodihydrofluorescein diacetate (H2DCFDA), a non-fluorescent dye which is trapped intracellularly by cleavage by intracellular esterases after reaction with reactive oxygen species (ROS); only the product, DCF, is fluorescent. For measuring intracellular ROS, B16F10 cells were seeded in 24 well plates at 4×10^4 cells/well. After 24 hours, media was aspirated and PC, THC and CMCs were added to the wells at different concentrations and further incubated for 48 hours. At the end of the incubations, the media was aspirated and cells were washed with PBS. DCFDA (Molecular Probes) was dissolved in DMSO to make 10 mM stock. DCFDA dye working stock (50 μM) was prepared by diluting the stock in DMEM (serum-free, phenol-red free and sodium pyruvate free) media and added to cells and further incubated for 45 minutes at 37° C. The cells were then washed with DPBS and fluorescence was read in bottom read mode, using a fluorescence microplate reader (Gemini EM Spectramax, Molecular Devices) set to excitation and emission wavelengths of 485 nm and 535 nm, respectively. Data was expressed as relative fluorescence % of treated vs. control.
# [2] = tested on: αMSH-stimulated B16F10 cells; experiment: Melanin content in αMSH-stimulated B16F10 cells; type: cell-based, mouse; design: unit of the concentration uncertain; details: 48 hours
# Description: (§1) B16F10 cells were seeded at 1×10^5 cells/well in 12-well plates and incubated for 24 hours. The test compounds were then added in presence or absence of αMSH (100 nM), and further incubated for another 48 hours. For evaluation of melanin content, cells were trypsinized, washed in PBS and then 250 μL of 1N NaOH was added and heated to 70° C. to solubilize melanin. The aliquots were then transferred to a 96-well plate and absorbance was read at 475 nm using microplate reader. The absorbance of melanin was normalized by total protein contents and reported as % of control.
# [3] = tested on: B16F10 mouse melanoma cells; type: cell-based; details: B16F10, 5 μM, 48 hours, MTS
# Description: In order to test the four CMCs (CMC2.14, CMC2.24, CMC2.5 and CMC2.23) alongside PC and THC, for their effects on melanin content, we first screened their nontoxic concentrations using MTS cytotoxicity (Promega CellTiter Aqueous One) assay. MTS is a tetrazolium salt which is reduced to purple colored formazan upon reaction with mitochondrial dehydrogenases. Briefly, B16F10 cells were seeded at 4×10^3 cells/well in 96-well plates for 24 hrs. […] Controls were treated with 0.16% DMSO. At the end of 48 hours, medium was aspirated and replaced by 100 μl of fresh media. MTS (20 μl) was added and incubated for 40 minutes and absorbance read at 490 nm using a Versamax® microplate reader. Cell viability was calculated from the absorbance values relative to control groups and expressed in %.
# [4] = tested on: αMSH-stimulated B16F10 cells; experiment: Melanin content in αMSH-stimulated B16F10 cells; type: cell-based, mouse
# Description: as §1
structure (smiles),measurement,setting,value
"COC(=O)C(C(=O)C=Cc1ccc(O)c(OC)c1)C(=O)C=Cc1ccc(O)c(OC)c1 (centres unmarked) [CMC2.5, 4-methoxycarbonyl curcumin]",reduction of intracellular ROS,[1],23%
same,reduction of melanin,"[2]; αMSH-stimulated B16F10, 20 (unit uncertain) as printed",36%
same,reduction of melanin,"[2]; αMSH-stimulated B16F10, 25 (unit uncertain) as printed",42%
COC(=O)C(C(=O)/C=C/c1ccc(O)cc1)C(=O)/C=C/c1ccc(O)cc1 [CMC2.14],increase of cell proliferation,[3],26.2%
COc1cc(/C=C/C(=O)C(C(=O)/C=C/c2ccc(O)c(OC)c2)C(=O)Nc2ccccc2)ccc1O [CMC2.23],lightening of cell pellets,[4],visible lightening
